According to patent US12661335B2, “Halogenated xanthene-containing topical anti-gram-positive bacterial ophthalmic composition and method” (Provectus Pharmatech, Inc., priority 2021, dated 2026):

The molecules below were run on M. smegmatis 607 ™ (RB mutant).
Format: cell-based, Mycobacterium smegmatis
With `NNC(=O)c1ccncc1` [Isoniazid (INH), Isoniazid] the “susceptibility of the RB-resistant strain to TB drugs” value (“susceptibility” below) was “cross-resistance”.
In the case of `NCC[C@H](O)C(=O)N[C@@H]1C[C@H](N)[C@@H](O[C@H]2O[C@H](CN)[C@@H](O)[C@H](O)[C@H]2O)[C@H](O)[C@H]1O[C@H]1O[C@H](CO)[C@@H](O)[C@H](N)[C@H]1O` [Amikacin], the “susceptibility” value is reported as “susceptible”.
In the case of `NC[C@H]1O[C@@H](O[C@H]([C@H]2O[C@@H](n3ccc(=O)[nH]c3=O)[C@H](O)[C@@H]2O)[C@H](NCCCC(=O)NCc2ccc(N3CCC(Oc4ccc(OC(F)(F)F)cc4)CC3)cc2)C(N)=O)[C@H](O)[C@@H]1O` [APPB, aminouridyl phenoxypiperidinylbenzyl butanamide], the “susceptibility” value is reported as “susceptible”.
`CCc1cc(C(N)=S)ccn1` [Ethionamide (ETH), Ethionamide] was tested, and the “susceptibility” value was “susceptible”.
In the case of Capreomycin, the “susceptibility” value is reported as “susceptible”.
